{"source": "patent EP0808832B1", "about": "“Fluorinated vitamin D3 analogs” (F. HOFFMANN-LA ROCHE AG, priority 1996, dated 1997)", "key": {"[1]": {"tested_on": "rats are ovariectomized (Ovx)", "assay_type": "in vivo, rat", "conditions": "for Whole Femur BMD: 3 to 6 weeks post-ovariectomy, right femur; for Urine Calcium/Creatinine 6th wk): 0.20 µg/kg once a day by mouth", "source_text": "Three month old rats are ovariectomized (Ovx) and administered either 1,25-dihydroxy vitamin D3 (vit. D in Table) or one of the compounds of the present invention once a day by mouth starting at 3 weeks post-ovariectomy and continuing until final sacrifice at 6 weeks post-ovariectomy. Control groups, both sham (rats that were not ovariectomized) and Ovx, received vehicle only. Blood and urine samples were collected twice, at 4 weeks post-ovariectomy and again at the 6 week mark and the amount of serum and urine calcium was determined. The final femoral calcium determined upon sacrifice 6 weeks post- ovariectomy.\nThe bone mineral density (BMD) of the right femur was determined by using a High Resolution Software Package on a QDR-1000W Bone Densitometer™ (Hologic, Walthan, MA). The animals were scanned by placing them on a scanning block in a supine position such that the right leg was perpendicular to the main body and the tibia was perpendicular to the femur.\nThe increase in the bone mineral density and the amount of calcium in the urine and the serum for some of the compounds of this invention in this assay are given in the table below: […]"}, "[2]": {"tested_on": "women with postmenopausal osteoporosis", "conditions": "0.25 microgram twice daily, after 3 years, mild to moderate disease, compared with elemental calcium 1000 mg/day; cited from earlier work"}}, "note": "“And” between values parts separate entries of the source, which are not always exact repeats. Equal values may be shown once. Read-outs that look alike come from different tables or passages of the source."}
{"smiles": "C=C1/C(=C\\C=C2/CCC[C@]3(C)[C@@H](C4(CC#CC(C)(C)O)CC4)CC[C@@H]23)C[C@@H](O)C[C@@H]1F", "note": "[Cpd. 58, 1-α-Fluoro-25-hydroxy-23-yne-20,21,28-cyclopropylcholecalciferol]", "values": [{"measurement": "Whole Femur BMD", "setting": "[1]; 5.00 µg/kg once a day by mouth", "value": 0.236, "unit": "g/cm^2"}]}
{"smiles": "C=C1/C(=C\\C=C2/CCC[C@]3(C)C([C@@H](C)C/C=C/C(C)(O)C(F)(F)F)=CC[C@@H]23)C[C@@H](O)C[C@@H]1F", "note": "(stereo partly drawn) [Cpd. 57, 1-α-Fluoro-25(RS)-hydroxy-16,23E-diene-26-trifluoro-20-epi-cholecalciferol]", "values": [{"measurement": "Whole Femur BMD", "setting": "[1]; 1.50 µg/kg once a day by mouth", "value": 0.248, "unit": "g/cm^2"}]}
{"smiles": "C=C1/C(=C\\C=C2/CCC[C@]3(C)[C@@H]([C@H](C)CCCC(C)(C)O)CC[C@@H]23)C[C@@H](O)C[C@@H]1O", "note": "[Vit D, 1,25-dihydroxy vitamin D3]", "values": [{"measurement": "Urine Calcium/Creatinine 6th wk)", "setting": "[1]", "value": "1.35 mg/dL and 1.44 mg/dL"}, {"measurement": "Urine Calcium/Creatinine 6th wk)", "setting": "[1]; listed as Vit. D", "value": "0.76 mg/dL and 1.44 mg/dL and 1.48 mg/dL"}, {"measurement": "lower rate of new vertebral fractures", "setting": "[2]", "value": 3, "unit": "fold"}]}
{"smiles": "C=C1/C(=C\\C=C2/CCC[C@]3(C)[C@@H](C4(C/C=C/C(O)(C(F)(F)F)C(F)(F)F)CC4)CC[C@@H]23)C[C@@H](O)C[C@@H]1F", "note": "[Cpd. 60, 1-α-Fluoro-25-hydroxy-23E-ene-26,27-hexafluoro-20,21,28-cyclopropyl-cholecalciferol]", "values": [{"measurement": "Whole Femur BMD", "setting": "[1]; 0.10 µg/kg once a day by mouth", "value": 0.242, "unit": "g/cm^2"}]}
{"smiles": "C=C1/C(=C\\C=C2/CCC[C@]3(C)C([C@@H](C)CC#CC4(O)CCCC4)=CC[C@@H]23)C[C@@H](O)C[C@@H]1F", "note": "[Cpd. 59, 1-α-Fluoro-25-hydroxy-16-ene-23-yne-25,26,27-cyclopentyl-20-epi-cholecalciferol]", "values": [{"measurement": "Whole Femur BMD", "setting": "[1]; 2.00 µg/kg once a day by mouth", "value": 0.233, "unit": "g/cm^2"}]}
{"smiles": "C=C1/C(=C\\C=C2/CCC[C@]3(C)[C@@H](C4(CC#CC(O)(C(F)(F)F)C(F)(F)F)CC4)CC[C@@H]23)C[C@@H](O)C[C@@H]1F", "note": "[Cpd. 61, 1-α-Fluoro-25-hydroxy-23-yne-26,27-hexafluoro-20,21,28-cyclopropyl-cholecalciferol]", "values": [{"measurement": "Whole Femur BMD", "setting": "[1]; 0.50 µg/kg once a day by mouth", "value": 0.243, "unit": "g/cm^2"}]}
